Tests used:
Assay type in all cases: cell-based
[1] = tested on: SH-SY5Y (human neuroblastoma) cells; test: Cell viability, Cell Titer Glo 2.0 assay; details: read-out: Viability SHSY5Y.3 GI50
Procedure, shortened: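 SH-SY5Y cells were exposed to serially diluted compounds in IMDM with 10% FBS and 0.1% DMSO for 72 hours at 37° C., 5% CO2. Viability was measured by CellTiter-Glo 2.0 luminescence, with medium-only wells as blank.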

[2] = tested on: MYB mRNA; test: Gene panel canonical junction qPCR assay, decrease in CJ mRNA, Table 3
Procedure, shortened: (§1)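 Canonical exon-junction (CJ) transcript measured by 5′ nuclease RT-qPCR, normalized to GAPDH, GUSB or PPIA and to DMSO control (2^(−ΔΔCt)). A673 or K562 cells treated 24 h at 37° C with an 11-point 3-fold dilution series, top 10 uM, DMSO ≤0.25%. IC50 from 4-parameter logistic fit of percentage CJ decrease.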

[3] = tested on: HTT mRNA; test: as above
Procedure, shortened: as §1

[4] = tested on: SMN2 mRNA; test: as above
Procedure, shortened: as §1

[5] = decrease in canonical junction (CJ) mRNA, gene panel qPCR, Table 3
[6] = decrease in CJ mRNA levels, canonical junction qPCR, gene panel

Row | SMILES | GI50 [1] [nM] | IC50 [2, 5] [nM] | IC50 [3, 5] [nM] | IC50 [4, 5] [nM] | IC50 [2, 6] [nM] | IC50 [3, 6] [nM] | IC50 [4, 6] [nM]
1 | COCCN[C@@H]1CCN(c2cc(O)c(C(=O)Nc3cc(F)c4nc(C)cn4c3)c3nn(C)cc23)C1 [Compound 285, N-(8-fluoro-2-methyl-imidazo[1,2-a]pyridin-6-yl)-6-hydroxy-4-[(3R)-3-(2-methoxyethylamino)pyrrolidin-1-yl]-2-methyl-indazole-7-carboxamide] | 1000 to 10000 | < 100 | > 10000 | < 100 | – | – | –
2 | CN[C@@H]1C[C@@H](C)N(c2ccc(C(=O)Nc3cc(F)c4nc(C)cn4c3)c3nn(C)cc23)C1 [Compound 129, N-(8-fluoro-2-methyl-imidazo[1,2-a]pyridin-6-yl)-2-methyl-4-[(2R,4R)-2-methyl-4-(methylamino)pyrrol-idin-1-yl]indazole-7-carboxamide] | 1000 to 10000 | 100 to 1000 | 1000 to 10000 | < 100 | – | – | –
3 | Cc1cn2cc(NC(=O)c3ccc(N4CCNCC4=O)c4cn(C)nc34)cc(F)c2n1 [Compound 251, N-(8-fluoro-2-methylimidazo[1,2-a]-pyridin-6-yl)-2-methyl-4-(2-oxopiperazin-1-yl)-2H-indazole-7-carboxamide 2,2,2-trifluoroacetate] | > 10000 | > 10000 | > 10000 | 1000 to 10000 | – | – | –
4 | COc1cc(N2CCNCC2)c2cn(C)nc2c1C(=O)Nc1cc(F)c2nc(C)cn2c1 [Compound 250, N-(8-fluoro-2-methyl-imidazo[1,2-a]pyridin-6-yl)-6-methoxy-2-methyl-4-piperazin-1-yl-indazole-7-carboxamide] | > 10000 | > 10000 | > 10000 | 1000 to 10000 | – | – | –
5 | Cc1cn2cc(NC(=O)c3ccc(N4CCNC(C(F)(F)F)C4)c4cn(C)nc34)cc(F)c2n1 (stereo not shown) [Compound 248, N-(8-fluoro-2-methyl-imidazo[1,2-a]-pyridin-6-yl)-2-methyl-4-[3-(trifluoro-methyl)piperazin-1-yl]indazole-7-carboxamide] | > 10000 | 1000 to 10000 | > 10000 | 100 to 1000 | – | – | –
6 | Cc1cn2nc(C(=O)Nc3ccc(N4C[C@@H](C)N[C@@H](C)C4)c4cc[nH]c34)cc(C)c2n1 [Compound 237, N-(4-[(3R,5S)-3,5-dimethylpiperazin-1-yl]-1H-indol-7-yl)-2,8-dimethylimidazo[1,2-b]pyridazine-6-carboxamide] | 1000 to 10000 | 1000 to 10000 | 1000 to 10000 | 1000 to 10000 | – | – | –
7 | CO[C@H]1C[C@@H](N[C@H]2CCN(c3ccc(C(=O)Nc4cc(F)c5nc(C)cn5c4)c4nn(C)cc34)C2)C1 [Compound 277, N-(8-fluoro-2-methylimidazo[1,2-a]pyridin-6-yl)-4-((S)-3-(((1s,3R)-3-methoxy-cyclobutyl)amino)pyrrolidin-1-yl)-2-methyl-2H-indazole-7-carboxamide] | 1000 to 10000 | 100 to 1000 | 1000 to 10000 | < 100 | – | – | –
8 | Cc1cn2cc(NS(=O)(=O)c3ccc(N4C[C@@H](C)N[C@@H](C)C4)c4cn(C)nc34)cc(F)c2n1 [Compound 279] | > 10000 | > 10000 | > 10000 | > 10000 | – | – | –
9 | CCNC1CCN(c2ccc(C(=O)Nc3cc4cn(C)nc4cc3O)c3[nH]ccc23)CC1 [Compound 190, 4-[4-(ethylamino)-1-piperidyl]-N-(6-hydroxy-2-methyl-indazol-5-yl)-1H-indole-7-carboxamide] | > 10000 | > 10000 | > 10000 | > 10000 | – | – | –
10 | CCNC1CCN(c2ccc(C(=O)Nc3cc(F)c4nc(C)cn4c3)c3c2nnn3C)CC1 [Compound 198, 4-(4-(ethylamino)piperidin-1-yl)-N-(8-fluoro-2-methylimidazo[1,2-a]pyridin-6-yl)-1-methyl-1H-benzo[d][1,2,3]triazole-7-carboxamide 2,2,2-trifluoroacetate] | > 10000 | > 10000 | > 10000 | > 10000 | – | – | –
11 | CN[C@H]1CCN(c2ccc(C(=O)Nc3cc(F)c4nc(C)cn4c3)c3c2nnn3C)C1 [Compound 160, N-(8-fluoro-2-methyl-imidazo[1,2-a]pyridin-6-yl)-3-methyl-7-[(3S)-3-(methylamino)-pyrrolidin-1-yl]benzotriazole-4-carboxamide] | > 10000 | > 10000 | > 10000 | > 10000 | – | – | –
12 | CCNC1CCN(c2ccc(C(=O)Nc3cc(F)c4nc(C)c(C)n4c3)c3nn(C)cc23)CC1 [Compound 188, 4-[4-(ethylamino)-1-piperidyl]-N-(8-fluoro-2,3-dimethyl-imidazo[1,2-a]pyridin-6-yl)-2-methyl-indazole-7-carboxamide] | 1000 to 10000 | > 10000 | > 10000 | > 10000 | – | – | –
13 | CN[C@H]1CCN(c2ccc(C(=O)Nc3cc(F)c4nc(C)cn4c3)c3nn(C)cc23)[C@@H]1C (single isomer, unassigned) [Compound 154] | 100 to 1000 | 100 to 1000 | > 10000 | < 100 | – | – | –
14 | CN[C@H]1C[C@@H](C)N(c2ccc(C(=O)Nc3cc(F)c4nc(C)cn4c3)c3nn(C)cc23)C1 (single isomer, unassigned) [Compound 128] | 1000 to 10000 | 100 to 1000 | 100 to 1000 | < 100 | – | – | –
15 | COCCN[C@@H]1CCN(c2ccc(C(=O)Nc3cc(F)c4nc(C)cn4c3)c3nn(C)cc23)C1 [Compound 113, N-(8-fluoro-2-methyl-imidazo[1,2-a]pyridin-6-yl)-4-[(3R)-3-(2-methoxyethylamino)pyrrolidin-1-yl]-2-methyl-indazole-7-carboxamide] | 1000 to 10000 | 100 to 1000 | > 10000 | < 100 | – | – | –

Other lines, results leading:

Row | GI50 [1] [nM] | IC50 [2, 5] [nM] | IC50 [3, 5] [nM] | IC50 [4, 5] [nM] | IC50 [2, 6] [nM] | IC50 [3, 6] [nM] | IC50 [4, 6] [nM] | SMILES
16 | 100 to 1000 | – | – | – | > 10000 | > 10000 | 100 to 1000 | COc1c(NC(=O)c2ncc(N3CCNCC3)c3cn[nH]c23)cn2cc(C)nc2c1F [Compound 606, N-(8-fluoro-7-methoxy-2-methyl-imidazo[1,2-a]pyridin-6-yl)-4-piperazin-1-yl-1H-pyrazolo[3,4-c]pyridine-7-carboxamide]
17 | < 100 | < 100 | 100 to 1000 | < 100 | – | – | – | COc1nc2c(C(=O)Nc3cc(F)c4nc(C)cn4c3)ccc(N3CCC(N)CC3)c2s1 [Compound 208, 7-(4-aminopiperidin-1-yl)-N-(8-fluoro-2-methylimidazo[1,2-a]pyridin-6-yl)-2-methoxybenzo[d]thiazole-4-carboxamide]
18 | 100 to 1000 | < 100 | 1000 to 10000 | < 100 | – | – | – | Cn1cc2cc(NC(=O)c3c(O)cc(N4CC[C@@H](NC5CC5)C4)c4cn(C)nc34)cc(F)c2n1 [Compound 291, 4-[(3R)-3-(cyclopropylamino)pyrrolidin-1-yl]-N-(7-fluoro-2-methyl-indazol-5-yl)-6-hydroxy-2-methyl-indazole-7-carboxamide]
19 | 100 to 1000 | < 100 | 100 to 1000 | < 100 | – | – | – | CCNC1CCN(c2ccc(C(=O)Nc3cn4cc(C)nc4c(OC)n3)c3nn(C)cc23)CC1 [Compound 206, 4-[4-(ethylamino)-1-piperidyl]-N-(8-methoxy-2-methyl-imidazo[1,2-a]pyrazin-6-yl)-2-methyl-indazole-7-carboxamide]
20 | 100 to 1000 | < 100 | 1000 to 10000 | < 100 | – | – | – | CCNC1CCN(c2ccc(C(=O)Nc3cc(F)c4nn(C)cc4c3)c3nn(C)cc23)CC1 [Compound 182, 4-(4-(ethylamino)piperidin-1-yl)-N-(7-fluoro-2-methyl-2H-indazol-5-yl)-2-methyl-2H-indazole-7-carboxamide]
21 | < 100 | < 100 | < 100 | < 100 | – | – | – | CNC1(C)CCN(c2cc(F)c(C(=O)Nc3cc(F)c4nc(C)cn4c3)c3nn(C)cc23)CC1 [Compound 179, 6-fluoro-N-(8-fluoro-2-methyl-imidazo[1,2-a]pyridin-6-yl)-2-methyl-4-[4-methyl-4-(methylamino)-1-piperidyl]indazole-7-carboxamide]
22 | 100 to 1000 | < 100 | 1000 to 10000 | < 100 | – | – | – | CCNC1CCN(c2ccc(C(=O)Nc3cc(F)c4nc(CF)cn4c3)c3nn(C)cc23)CC1 [Compound 202, 4-[4-(ethylamino)-1-piperidyl]-N-[8-fluoro-2-(fluoromethyl)imidazo[1,2-a]pyridin-6-yl]-2-methyl-indazole-7-carboxamide]
23 | < 100 | < 100 | 100 to 1000 | < 100 | – | – | – | Cc1cn2cc(NC(=O)c3ccc(N4CCC(NC5CC5)CC4)n4cc(C)nc34)cc(F)c2n1 [Compound 210, 5-(4-(cyclopropylamino)piperidin-1-yl)-N-(8-fluoro-2-methylimidazo[1,2-a]pyridin-6-yl)-2-methylimidazo[1,2-a]-pyridine-8-carboxamide]
24 | < 100 | < 100 | < 100 | < 100 | – | – | – | CNC1(C)CCN(c2ccc(C(=O)Nc3cn4cc(C)nc4c(OC)n3)c3nn(C)cc23)CC1 [Compound 197, N-(8-methoxy-2-methylimidazo[1,2-a]pyrazin-6-yl)-2-methyl-4-(4-methyl-4-(methylamino)piperidin-1-yl)-2H-indazole-7-carboxamide]
25 | 100 to 1000 | 100 to 1000 | 100 to 1000 | 100 to 1000 | – | – | – | Cc1cn2nc(NC(=O)c3ccc(N4CCC(NC5CC5)CC4)c4cn(C)nc34)cc(C)c2n1 [Compound 187, 4-[4-(cyclopropylamino)-1-piperidyl]-N-(2,8-dimethylimidazo-[1,2-b]pyridazin-6-yl)-2-methyl-indazole-7-carboxamide]
